Data from patent US9878021B2, “Compositions and methods for treatment of retinal degenerative diseases” (MOR RESEARCH APPLICATIONS LTD., priority 2013, dated 2018).

Experiments:
Assay type in all cases: cell-based
RPE cells [1] = test: Conditioned media (SASP) applied on fresh RPE cells, morphology; conditions: applied 72 hours
Method: The most significant effect of senescence, is the acquisition of a senescence-associated secretory phenotype (SASP). SASP can convert senescent cells to proinflammatory cells that promote the secretion of chemokines and cytokines that can affect the microenvironment, including in the human retina (16, 17). To examine the role of TAK1 in this process, RPE cells were treated with TAK1 inhibitor or with H2O2, alone or in combination. After 2 weeks, the media was collected from the three separate treatments, centrifuged and the supernatants (conditioned media) were applied on fresh RPE cells for 72 hours.

RPE cells [2] = test: SA-β-gal (senescence marker) staining
ARPE-19 cells = test: Cell viability / proliferation XTT assay
Method: Cell viability assays ARPE-19 cells were seeded in 96-well plates (5000 cells/well) in full medium and were pretreated with the TAK1 inhibitor 5Z-7-oxozeaenol (1 μM) or left untreated for 1 hour. Their viability was then assayed by the XTT assay (cell proliferation kit cat #20-300-1000; Beit Haemek, Israel).
(§1) To determine possible toxicity of anisomycin to RPE cells, RPE cells were treated with anisomycin at different concentration for 5 minute periods. Following treatment, the medium was replaced and fresh medium was added. 72 hours post-treatment, the cells were photographed. […] Their viability was then assayed by the XTT assay.

[3] = test system: p53, phospho-p38 in RPE cells; test: Western blot analysis of p53 and phospho-p38
Method: Western blot analysis was performed by standard protocols (11), p53, p38, phospho-p38, GADPH, and TAK1; antibodies were obtained from Enco, Israel.

RPE cells [4] = test: RPE cell size quantification (hypertrophy); conditions: TAK1 inhibition combined with oxidative stress, compared to stressed and normal cells
Method: N=40 cells for each treatment.
One of the hallmarks of RPE senescence is cellular hypertrophy. RPE cell size is approximately […]; but upon oxidative stress or genetic mutation RPE cells can undergo enlargement.

RPE cells (ARPE-19) [5] = test: Double-staining (annexin and propidium iodide) FACS assay of RPE cells; conditions: TAK1 inhibitor 1 μM 1 hour prior to H2O2 200 μM; untreated 1.25%, H2O2 alone 31%
Method: (§2) Double-staining (annexin and propidium iodide (PI)) assay of RPE cells. RPE cells (ARPE-19, available from ATCC) were treated for one hour with the TAK1 inhibitor {5Z-7-oxozeaenol (1 μM)}, following 200 μM H2O2 for one hour or left untreated. The cells were then washed with fresh medium and after 24 hours were trypsinized, stained, and analyzed by FACS. The percentage of cells in each cell-cycle phase (G1/G0, S, and G2/M) was determined by its DNA content (FL2A).

RPE cells (ARPE-19) [6] = test: FACS cell-cycle analysis by DNA content (FL2A)
Method: as §2

RPE cells [7] = test: Anisomycin toxicity to RPE cells, cellular morphology; conditions: different concentrations for 5 minute periods, 72 hours post-treatment; low levels
Method: as §1

Row | SMILES | phenotype of fresh RPE cells receiving conditioned medium (RPE cells [1]; medium from cells treated with TAK1 inhibitor alone, 2 weeks) | phenotype of fresh RPE cells receiving conditioned medium (RPE cells [1]; medium from cells treated with both TAK1 inhibitor and H2O2, 2 weeks) | number of cells expressing SA-β-gal (RPE cells [2]; TAK1 inhibitor alone, relative to untreated cells) | SA-β-gal expression (RPE cells [2]; pretreatment with TAK1 inhibitor then oxidative stress (H2O2), days 13 and 16) | proliferation rate (optical density) (ARPE-19 cells; 1 μM pretreatment 1 hour, untreated cells peak on day 4) | p38 phosphorylation ([3]; RPE cells under oxidative stress, pretreated with TAK1 inhibitor 1 μM) | p53 expression levels over a longer period ([3]; TAK1 inhibition, days, compared to untreated cells) | time at which p53 expression peaked ([3]; pretreated cells under oxidative stress, control cells peak after 60 min) [min] | cell size (RPE cells [4]) | number of apoptotic cells expressed as a percentage of the total number (RPE cells (ARPE-19) [5]) [%] | G2/M arrest under oxidative stress (RPE cells (ARPE-19) [6]; TAK1 inhibition prior to H2O2 treatment) | percentage of cells at the G0/G1 stage (RPE cells (ARPE-19) [6]; following TAK1 inhibition, of the total number) [%] | toxicity to RPE cells (cellular morphology vs control) (RPE cells [7]) | number of SA-β-Gal positive cells (RPE cells [2]; H2O2 1 hour, 10 days growth, anisomycin 10 ng/ml 5 min, five more days, vs untreated cells exposed to oxidative stress) | rate of cell proliferation (ARPE-19 cells; oxidative stress and anisomycin)
1 | COc1cc(O)c2c(c1)/C=C/C[C@H](O)[C@H](O)C(=O)/C=C\C[C@H](C)OC2=O [5Z-7-oxozeaenol] | hypertrophic phenotype similar to that of senescent cells | aberrant morphology similar to that of atrophic RPE cells | dramatically increased | strongly increased | slower proliferation rate that began to decrease after 3 days | inhibition of p38 phosphorylation | reduced p53 expression levels slightly more than the untreated cells | 10 | further increases cell size | 24 | reduced | 89 | – | – | –
2 | COc1ccc(C[C@H]2NC[C@H](O)[C@H]2OC(C)=O)cc1 [anisomycin, (2R,3S,4S)-4-hydroxy-2-(4-methoxybenzyl)-pyrrolidin-3-yl acetate] | – | – | – | – | – | – | – | – | – | – | – | – | not toxic | reduces the number of SA-β-Gal positive cells | did not display reduction
